# Assay results taken from patent publication US7390910B2, “Compounds for treating tumors” (priority 2003, dated 2008).
# Marks after values point to notes of the source that are not given here. *1 amine or outer side, *2 acyl side, *3 side chain or, on linkers, in order; H or OH if unused. Where a SMILES comes first, the peptide text is derived from it. [ ]: non-standard residue; d: D form. The star is where a group is joined. NMePhe(3-Me,β,β-Me2) = CN[C@H](C(=O)O)C(C)(C)c1cccc(C)c1; X1 = C/C(=C\[C@H](C(C)C)N(C)[*:1])C(=O)[*:2]; Tle = CC(C)(C)[C@H](N)C(=O)O; NHBn = c1ccc(CN*)cc1
# Legend:
# [1] = system: bovine microtubule-associated protein (MAP)-rich tubulin; assay type: biochemical
# In short: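 This in vitro polymerization assay used bovine tubulin rich in microtubule-associated proteins, prepared at 1.5 mg/ml in GPEM (PEM buffer containing 1 mM GTP) and cleared by a 12,000×g spin. Tubulin solution (100 μl/well) was dispensed onto duplicate 10 μl test samples. Control wells held 0.3% DMSO. A SpectraMax Plus reader recorded turbidity at 340 nm every minute over 60 min at 24° C.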
# KB cells = assay: cells; assay type: cell-based; conditions: for IC50: 3 days, SRB; for inhibition at 3 µM: 3000 nM
# Description: (§1) Cell Survival Assay: Standard Pharmacological Test Procedure. […] Compounds are incubated with cells for 3 days.
# KB85 = assay: cells; assay type: cell-based; conditions: for IC50: 3 days, SRB; for inhibition at 3 µM: 3000 nM
# Description: as §1
# KBV1 = assay: cells; assay type: cell-based; conditions: for IC50: 3 days, SRB; for inhibition at 3 µM: KB-V1, 3000 nM
# Description: as §1
# Colo205 = assay: Cell survival assay (SRB), Colo205; assay type: cell-based; conditions: Colo205 cells, 3 days
# Description: as §1
Compound,Tubulin Polym. % inhibition at 0.3 uM [1],"IC50 (KB cells; Homo sapiens, KB, 72 h)",IC50 (KB85; 72 h),"IC50 (Colo205; Homo sapiens, COLO 205, 72 h)","IC50 (KBV1; Homo sapiens, KB-V1, 72 h)",inhibition at 3 µM (KBV1; Homo sapiens),further results
"(E,4S)-4-[((2S)-2-{[(2S)-2-azido-3-methyl-3-phenylbutanoyl]amino}-3,3-dimethylbutanoyl)(methyl)amino]-2,5-dimethyl-2-hexenoic acid and (E,4S)-4-[((2S)-2-{[(2R)-2-azido-3-methyl-3-phenylbutanoyl]amino}-3,3-dimethylbutanoyl)(methyl)amino]-2,5-dimethyl-2-hexenoic acid [Example 94]",73%,,,,,,IC50 (KB cells): 1300 nM; IC50 (KB85): 1330 nM; KBV1 % inhibition @ 3000 nM (KBV1; 3000 nM): 30%(2); IC50 (Colo205): 460 nM
"CCOC(=O)/C(C)=C/[C@H](C(C)C)N(C)C(=O)[C@@H](NC(=O)C(CC)C(C)(C)c1ccccc1)C(C)(C)C (stereo partly drawn) [Example 99, Ethyl (E,4S)-4-[((2S)-3,3-dimethyl-2-{[3-methyl-2-ethyl-3-phenylbutanoyl]amino}butanoyl)(methyl)amino]-2,5-dimethyl-2-hexenoate]",,3480 nM,3640 nM,> 1000 nM,,,KBV1 % inhibition @6000 (KBV1): 16%@6000
"CCC(C(=O)N[C@H](C(=O)N(C)[C@H](/C=C(\C)C(=O)O)C(C)C)C(C)(C)C)C(C)(C)c1ccccc1 (stereo partly drawn) [Example 100, (E,4S)-4-[((2S)-3,3-dimethyl-2-{[3-methyl-2-ethyl-3-phenylbutanoyl]amino}butanoyl)(methyl)amino]-2,5-dimethyl-2-hexenoic acid]",54%,957 nM,1150 nM,190 nM,5260 nM,,
"CN[C@H](C(=O)N[C@H](C(=O)N(C)[C@H](/C=C(\C)C=O)C(C)C)C(C)(C)C)C(C)(C)c1ccc([S+](C)C)cc1.O=C(O)C(F)(F)F [Example 83, 4-(dimethylsulfonio)-N,β,β-trimethyl-L-phenylalanyl-N^1-[(1S,2E)-1-isopropyl-3-methyl-4-oxo-2-butenyl]-N^1,3-dimethyl-L-valinamide trifluoroacetic acid]",0%,,,46 nM,2400 nM,,IC50 (KBV1; trifluoroacetic acid): > 3000 nM
"CCOC(=O)/C(C)=C/[C@H](C(C)C)N(C)C(=O)[C@@H](NC(=O)C(SC)C(C)(C)c1ccccc1)C(C)(C)C (stereo partly drawn) [Example 101, Ethyl (E,4S)-4-[((2S)-3,3-dimethyl-2-{[3-methyl-2-methylsulfanyl-3-phenylbutanoyl]amino}butanoyl)(methyl)amino]-2,5-dimethyl-2-hexenoate]",,1100 nM,1820 nM,> 1000 nM,4580 nM,,
"C=CCC(C(=O)N[C@H](C(=O)N(C)[C@H](/C=C(\C)C(=O)OCC)C(C)C)C(C)(C)C)C(C)(C)c1ccccc1 (stereo partly drawn) [Example 97, Ethyl (E,4S)-4-[((2S)-3,3-dimethyl-2-{[3-methyl-2-allyl-3-phenylbutanoyl]amino}butanoyl)(methyl)amino]-2,5-dimethyl-2-hexenoate]",,1910 nM,3320 nM,> 1000 nM,,,KBV1 % inhibition @6000 (KBV1): 17%@6000
"CCOS(=O)(=O)/C=C/[C@H](C(C)C)N(C)C(=O)[C@@H](NC(=O)[C@@H](NC)C(C)(C)c1ccccc1)C(C)(C)C [Example 63, N,β,β-trimethyl-L-phenylalanyl-N^1-[(1S,2E)-3-(ethoxysulfonyl)-1-isopropylprop-2-enyl]-N^1,3-dimethyl-L-valinamide]",42%,,,,,0%,"inhibition at 3 µM (KB cells; Homo sapiens, 72 h): 1%; inhibition at 3 µM (KB85): 0%"
"CN[C@H](C(=O)N[C@H](C(=O)N(C)[C@H](/C=C(\C)C(=O)N1CCC[C@@H]1C(=O)N1CCC[C@@H]1C(=O)NCc1ccccc1)C(C)C)C(C)(C)C)C(C)(C)c1cccc(C)c1.O=C(O)C(F)(F)F [Example 9, 1-{(2E,4S)-2,5-Dimethyl-4-[methyl(N,β,β,3-tetramethyl-L-phenylalanyl-3-methyl-L-valyl)amino]hex-2-enoyl}-D-prolyl-N-benzyl-D-prolinamide trifluoroacetic acid salt] (H-[NMePhe(3-Me,β,β-Me2)][Tle][X1][dP][dP]-NHBn)",56%,1.4 nM,23 nM,,,21%,
"CN[C@H](C(=O)N[C@H](C(=O)N(C)[C@H](/C=C(\C)C(=O)N1CCC[C@H]1C(=O)N1CCC[C@H]1C(=O)NCc1ccccc1)C(C)C)C(C)(C)C)C(C)(C)c1ccc(C)c(C)c1 [Example 10, 1-{(2E,4S)-2,5-Dimethyl-4-[methyl(N,β,β,3,4-pentamethyl-L-phenylalanyl-3-methyl-L-valyl)amino]hex-2-enoyl}-L-prolyl-N-benzyl-L-prolinamide]",42%,1.5 nM,19.7 nM,,2140 nM,,
"CN[C@H](C(=O)N[C@H](C(=O)N(C)[C@H](/C=C/P(=O)(O)O)C(C)C)C(C)(C)C)C(C)(C)c1ccccc1 [Example 70, N,β,β-trimethyl-L-phenylalanyl-N^1-[(1S,2E)-1-isopropyl-3-phosphonoprop-2-enyl]N^1,3-dimethyl-L-valinamide]",69%,,,,,3%,"inhibition at 3 µM (KB cells; Homo sapiens, 72 h): 0%; inhibition at 3 µM (KB85): 0%"
"CCOC(=O)/C(C)=C/[C@H](C(C)C)N(C)C(=O)[C@@H](NC(=O)C(Cc1ccccc1)C(C)(C)c1ccccc1)C(C)(C)C (stereo partly drawn) [Example 95, Ethyl (E,4S)-4-[((2S)-3,3-dimethyl-2-{[3-methyl-2-(benzyl)-3-phenylbutanoyl]amino}butanoyl)(methyl)amino]-2,5-dimethyl-2-hexenoate]",,575 nM,756 nM,> 1000 nM,,15%,
"CN[C@H](C(=O)N[C@H](C(=O)N(C)[C@H](/C=C(\C)C(=O)N1C[C@H](O)C[C@H]1C(=O)OC)C(C)C)C(C)(C)C)C(C)(C)c1ccccc1 [Example 40, N,β,β-trimethyl-L-phenylalanyl-N^1-{(1S,2E)-4-[(2S,4R)-2-(methoxycarbonyl)-4-hydroxypyrrolidin-1-yl]-1-isopropyl-3-methyl-4-oxobut-2-enyl}-N^1,3-dimethyl-L-valinamide]",,3.5 nM,116 nM,,,4%,Tubulin Polym. % inhibition at 0.5 uM ([1]; 0.5 uM): 93*** %
"CCOS(=O)(=O)/C(C)=C/[C@H](C(C)C)N(C)C(=O)[C@@H](NC(=O)[C@@H](NC)C(C)(C)c1ccccc1)C(C)(C)C [Example 65, N,β,β-trimethyl-L-phenylalanyl-N^1-[(1S,2E)-3-(ethoxysulfonyl)-1-isopropylbut-2-enyl]-N^1,3-dimethyl-L-valinamide]",44%,,,,,0%,"inhibition at 3 µM (KB cells; Homo sapiens, 72 h): 11%; inhibition at 3 µM (KB85): 1%"
"CN[C@H](C(=O)N[C@H](C(=O)N(C)[C@H](/C=C/P(=O)(O)OC)C(C)C)C(C)(C)C)C(C)(C)c1ccccc1 [Example 69, N,β,β-trimethyl-L-phenylalanyl-N^1-{(1S,2E)-3-[hydroxy(methoxy)phosphoryl]-1-isopropylprop-2-enyl}-N^1,3-dimethyl-L-valinamide]",59%,,,,,3%,"inhibition at 3 µM (KB cells; Homo sapiens, 72 h): 0%; inhibition at 3 µM (KB85): 0%"
"CN[C@H](C(=O)N[C@H](C(=O)N(C)[C@H](/C=C(\C)C(=O)N1CCC[C@H]1C(=O)O)C(C)C)C(C)(C)C)C(C)(C)C1CCCCC1 [Example 46, 3-cyclohexyl-N-methyl-L-valyl-N^1-{(1S,2E)-4-[(2S)-2-carboxypyrrolidin-1-yl]-1-isopropyl-3-methyl-4-oxobut-2-enyl}-N^1,3-dimethyl-L-valinamide]",99%,450 nM,1720 nM,,,1%,
"CN[C@H](C(=O)N[C@H](C(=O)N(C)[C@H](/C=C(\C)C(=O)N(C)OC)C(C)C)C(C)(C)C)C(C)(C)c1ccccc1 [Example 52, N,β,β-trimethyl-L-phenylalanyl-N^1-{(1S,2E)-1-isopropyl-4-[methoxy(methyl)-amino]-3-methyl-4-oxobut-2-enyl}-N^1,3-dimethyl-L-valinamide]",86%,11 nM,47 nM,,392 nM,,
"CN[C@H](C(=O)N[C@H](C(=O)N(C)[C@H](/C=C(\C)C(=O)N1CCN(Cc2ccccc2)CC1)C(C)C)C(C)(C)C)C(C)(C)c1cc(C)cc(C)c1 [Example 14, N,β,β,3,5-Pentamethyl-L-phenylalanyl-N^1-[(1S,2E)-4-(4-benzylpiperazin-1-yl)-1-isopropyl-3-methyl-4-oxobut-2-enyl]-N^1,3-dimethyl-L-valinamide]",51(5) %,45 nM,135 nM,,1650 nM,,
"CN[C@H](C(=O)N[C@H](C(=O)N(C)[C@H](/C=C(\C)C(=O)N1CCN(C)CC1)C(C)C)C(C)(C)C)C(C)(C)c1ccc(C)c(C)c1 [Example 7, N,β,β,3,4-Pentamethyl-L-phenylalanyl-N^1-[(1S,2E)-1-isopropyl-3-methyl-4-(4-methylpiperazin-1-yl)-4-oxobut-2-enyl]-N^1,3-dimethyl-L-valinamide]",32%,47 nM,68 nM,,2190 nM,,
"C/C(=C\[C@H](C(C)C)N(C)C(=O)[C@@H](NC(=O)[C@@H]1CCCN1C)C(C)(C)C)C(=O)O [Example 62, 1-methyl-L-prolyl-N^1-[(1S,2E)-3-carboxy-1-isopropylbut-2-enyl]-N^1,3-dimethyl-L-valinamide]",65(2) %,2950 nM,,,,10%,inhibition at 3 µM (KB85): 26%
